# How the values were obtained:
# Erwinia carotovora = test: Preventive action on potatoes against Erwinia carotovora (field trial); type: in vivo; conditions: under the trial conditions (potato field trial); assumed, not tested alone
# Excerpt: (§1) The visually determined percentages of infected leaf areas were converted into efficacies in % of the untreated control:
# (§2) An efficacy of 0 means that the infection level of the treated plants corresponds to that of the untreated control plants; an efficacy of 100 means that the treated plants were not infected.
# Xathomonas ssp = test: Preventive action on tomatoes against Xathomonas ssp (field trial); type: in vivo; conditions: under the trial conditions (tomato field trial); assumed, not tested alone
# Protocol: The active compounds used were applied as commercially available formulations.
# as §1
# The efficacy (E) is calculated as follows using Abbot's formula: […]
# α corresponds to the fungal infection of the treated plants in % and β corresponds to the fungal infection of the untreated (control) plants in %
# as §2
# The trial was conducted under field conditions. Tomato plants of variety Carmen at a height of app. 10 cm were planted and grown under standard conditions with adequate supply of water and nutrients. After 18 days a first application of active compounds was made, which was repeated five times every 5 to 8 days. No other compounds were applied for pathogen control. Infection with pathogens occurred. Each treatment consisted of four replicants in a randomized block design. The disease incidences were evaluated 46 days after the first application (Xathomonas ssp.).
structure (smiles),measurement,setting,value
"[Cl-].[Cu+2].[Cu+2].[OH-].[OH-].[OH-] [copper, copper oxychloride]",efficacy against Erwinia carotovora,Erwinia carotovora,very close to zero
same,efficacy against Xathomonas,Xathomonas ssp,very close to zero
